Literature values in patent publication US20100210653A1, “Novel Compounds, Their Preparations and Use” (HIGH POINT PHARMACEUTICALS, LLC, priority 2004, published 2010).

Assays:
[1] = system: high fat diet induced insulin resistant mice and diabetic ob/ob; settings: PNAS 2003, 100, 15924-15929
C2C12 muscle cells = settings: in vitro treatment, two publications

In the case of Cc1cc(SCc2sc(-c3ccc(C(F)(F)F)cc3)nc2C)ccc1OCC(=O)O [GW501516], the insulin sensitivity [1] is given as “improved insulin sensitivity”, the “plasma glucose and insulin” value [1] is given as “lowering of plasma glucose and insulin” and the “regulation of genes (LPL, ACS4, CTP1, PDK4, UCP1, -2, -3, ABCA1/G1)” value (C2C12 muscle cells) is given as “regulation of genes involved with TG hydrolysis and FFA oxidation”.
